From ChEMBL document CHEMBL3872220, “Amphiphilic xanthones as a potent chemical entity of anti-mycobacterial agents with membrane-targeting properties” (Eur J Med Chem, 2016)
Converted amounts (≈) assume the structure as drawn.

Legend:
[1] = system: Mycobacterium tuberculosis variant bovis; assay: Antimycobacterial activity against Mycobacterium bovis BCG ATCC 35734 assessed as ATP leakage by measuring intracellular ATP at 2 times MIC measured at 1 hr post dose by luciferase reporter gene assay; format: functional, Mycobacterium tuberculosis variant bovis BCG
[2] = system: Mycobacterium tuberculosis variant bovis; assay: Antimycobacterial activity against Mycobacterium bovis BCG ATCC 35734 assessed as ATP leakage by measuring intracellular ATP at 0.5 times MIC measured immediatey after addition of compounds by luciferase reporter gene assay; format: functional, Mycobacterium tuberculosis variant bovis BCG
[3] = system: Mycobacterium tuberculosis variant bovis; assay: Antimycobacterial activity against Mycobacterium bovis BCG ATCC 35734 assessed as ATP leakage by measuring extracellular ATP at 4 times MIC measured immediatey after addition of compounds by luciferase reporter gene assay; format: functional, Mycobacterium tuberculosis variant bovis BCG
[4] = system: Mycobacterium tuberculosis variant bovis; assay: Antimycobacterial activity against Mycobacterium bovis BCG ATCC 35734 assessed as ATP leakage by measuring intracellular ATP at 4 times MIC measured at 6 hrs post dose by luciferase reporter gene assay; format: functional, Mycobacterium tuberculosis variant bovis BCG
[5] = system: Mycobacterium tuberculosis variant bovis; assay: Antimycobacterial activity against Mycobacterium bovis BCG ATCC 35734 assessed as ATP leakage by measuring intracellular ATP at 2 times MIC measured at 3 hrs post dose by luciferase reporter gene assay; format: functional, Mycobacterium tuberculosis variant bovis BCG
[6] = system: Mycobacterium tuberculosis variant bovis; assay: Antimycobacterial activity against Mycobacterium bovis BCG ATCC 35734 assessed as ATP leakage by measuring intracellular ATP at 4 times MIC measured at 24 hrs post dose by luciferase reporter gene assay; format: functional, Mycobacterium tuberculosis variant bovis BCG
[7] = system: Mycobacterium tuberculosis variant bovis; assay: Antimycobacterial activity against Mycobacterium bovis BCG ATCC 35734 assessed as ATP leakage by measuring extracellular ATP at 0.5 times MIC measured at 24 hrs post dose by luciferase reporter gene assay; format: functional, Mycobacterium tuberculosis variant bovis BCG
[8] = system: Mycobacterium tuberculosis variant bovis; assay: Antimycobacterial activity against Mycobacterium bovis BCG ATCC 35734 assessed as ATP leakage by measuring extracellular ATP at 1 MIC measured immediatey after addition of compounds by luciferase reporter gene assay; format: functional, Mycobacterium tuberculosis variant bovis BCG
[9] = system: Mycobacterium tuberculosis variant bovis; assay: Antimycobacterial activity against Mycobacterium bovis BCG ATCC 35734 assessed as ATP leakage by measuring extracellular ATP at 0.5 times MIC measured at 6 hrs post dose by luciferase reporter gene assay; format: functional, Mycobacterium tuberculosis variant bovis BCG
[10] = system: Mycobacterium tuberculosis variant bovis; assay: Antimycobacterial activity against Mycobacterium bovis BCG ATCC 35734 assessed as ATP leakage by measuring intracellular ATP at 0.5 times MIC measured at 24 hrs post dose by luciferase reporter gene assay; format: functional, Mycobacterium tuberculosis variant bovis BCG
[11] = system: Mycobacterium tuberculosis variant bovis; assay: Antimycobacterial activity against Mycobacterium bovis BCG ATCC 35734 assessed as ATP leakage by measuring intracellular ATP at 1 MIC measured at 3 hrs post dose by luciferase reporter gene assay; format: functional, Mycobacterium tuberculosis variant bovis BCG
[12] = system: Mycobacterium tuberculosis variant bovis; assay: Antimycobacterial activity against Mycobacterium bovis BCG ATCC 35734 assessed as ATP leakage by measuring extracellular ATP at 4 times MIC measured at 9 hrs post dose by luciferase reporter gene assay; format: functional, Mycobacterium tuberculosis variant bovis BCG
[13] = system: Mycobacterium tuberculosis variant bovis; assay: Antimycobacterial activity against Mycobacterium bovis BCG ATCC 35734 assessed as ATP leakage by measuring intracellular ATP at 2 times MIC measured at 24 hrs post dose by luciferase reporter gene assay; format: functional, Mycobacterium tuberculosis variant bovis BCG
[14] = system: Mycobacterium tuberculosis variant bovis; assay: Antimycobacterial activity against Mycobacterium bovis BCG ATCC 35734 after 5 days by broth dilution assay; format: functional; settings: ATCC 35734, 120 h
[15] = system: Mycobacterium tuberculosis variant bovis; assay: Antimycobacterial activity against Mycobacterium bovis BCG ATCC 35734 assessed as ATP leakage by measuring intracellular ATP at 2 times MIC measured at 9 hrs post dose by luciferase reporter gene assay; format: functional, Mycobacterium tuberculosis variant bovis BCG
[16] = system: Mycobacterium tuberculosis variant bovis; assay: Antimycobacterial activity against Mycobacterium bovis BCG ATCC 35734 assessed as ATP leakage by measuring extracellular ATP at 2 times MIC measured at 9 hrs post dose by luciferase reporter gene assay; format: functional, Mycobacterium tuberculosis variant bovis BCG
[17] = system: Mycobacterium tuberculosis variant bovis; assay: Antimycobacterial activity against Mycobacterium bovis BCG ATCC 35734 assessed as ATP leakage by measuring extracellular ATP at 1 MIC measured at 9 hrs post dose by luciferase reporter gene assay; format: functional, Mycobacterium tuberculosis variant bovis BCG
[18] = system: Mycobacterium tuberculosis variant bovis; assay: Antimycobacterial activity against Mycobacterium bovis BCG ATCC 35734 assessed as ATP leakage by measuring extracellular ATP at 1 MIC measured at 24 hrs post dose by luciferase reporter gene assay; format: functional, Mycobacterium tuberculosis variant bovis BCG
[19] = system: Mycobacterium tuberculosis variant bovis; assay: Antimycobacterial activity against Mycobacterium bovis BCG ATCC 35734 assessed as ATP leakage by measuring extracellular ATP at 0.5 times MIC measured at 9 hrs post dose by luciferase reporter gene assay; format: functional, Mycobacterium tuberculosis variant bovis BCG
[20] = system: Mycobacterium tuberculosis variant bovis; assay: Antimycobacterial activity against Mycobacterium bovis BCG ATCC 35734 assessed as ATP leakage by measuring intracellular ATP at 0.5 times MIC measured at 3 hrs post dose by luciferase reporter gene assay; format: functional, Mycobacterium tuberculosis variant bovis BCG
[21] = system: Mycobacterium tuberculosis variant bovis; assay: Antimycobacterial activity against Mycobacterium bovis BCG ATCC 35734 assessed as ATP leakage by measuring extracellular ATP at 4 times MIC measured at 24 hrs post dose by luciferase reporter gene assay; format: functional, Mycobacterium tuberculosis variant bovis BCG
[22] = system: Mycobacterium tuberculosis variant bovis; assay: Antimycobacterial activity against Mycobacterium bovis BCG ATCC 35734 assessed as ATP leakage by measuring extracellular ATP at 4 times MIC measured at 1 hr post dose by luciferase reporter gene assay; format: functional, Mycobacterium tuberculosis variant bovis BCG
[23] = system: Mycobacterium tuberculosis variant bovis; assay: Antimycobacterial activity against Mycobacterium bovis BCG ATCC 35734 assessed as ATP leakage by measuring intracellular ATP at 1 MIC measured at 9 hrs post dose by luciferase reporter gene assay; format: functional, Mycobacterium tuberculosis variant bovis BCG
[24] = system: Mycobacterium tuberculosis variant bovis; assay: Antimycobacterial activity against Mycobacterium bovis BCG ATCC 35734 assessed as ATP leakage by measuring extracellular ATP at 2 times MIC measured at 24 hrs post dose by luciferase reporter gene assay; format: functional, Mycobacterium tuberculosis variant bovis BCG
[25] = system: Mycobacterium tuberculosis variant bovis; assay: Antimycobacterial activity against Mycobacterium bovis BCG ATCC 35734 assessed as ATP leakage by measuring extracellular ATP at 0.5 times MIC measured immediatey after addition of compounds by luciferase reporter gene assay; format: functional, Mycobacterium tuberculosis variant bovis BCG
[26] = system: Mycobacterium tuberculosis variant bovis; assay: Antimycobacterial activity against Mycobacterium bovis BCG ATCC 35734 assessed as ATP leakage by measuring extracellular ATP at 4 times MIC measured at 6 hrs post dose by luciferase reporter gene assay; format: functional, Mycobacterium tuberculosis variant bovis BCG
[27] = system: Mycobacterium tuberculosis variant bovis; assay: Antimycobacterial activity against Mycobacterium bovis BCG ATCC 35734 assessed as ATP leakage by measuring intracellular ATP at 2 times MIC measured at 6 hrs post dose by luciferase reporter gene assay; format: functional, Mycobacterium tuberculosis variant bovis BCG
[28] = system: Mycobacterium tuberculosis variant bovis; assay: Antimycobacterial activity against Mycobacterium bovis BCG ATCC 35734 assessed as ATP leakage by measuring intracellular ATP at 0.5 times MIC measured at 1 hr post dose by luciferase reporter gene assay; format: functional, Mycobacterium tuberculosis variant bovis BCG
[29] = system: Mycobacterium tuberculosis variant bovis; assay: Antimycobacterial activity against Mycobacterium bovis BCG ATCC 35734 assessed as ATP leakage by measuring extracellular ATP at 2 times MIC measured at 3 hrs post dose by luciferase reporter gene assay; format: functional, Mycobacterium tuberculosis variant bovis BCG
[30] = system: Mycobacterium tuberculosis variant bovis; assay: Antimycobacterial activity against Mycobacterium bovis BCG ATCC 35734 assessed as ATP leakage by measuring extracellular ATP at 1 MIC measured at 3 hrs post dose by luciferase reporter gene assay; format: functional, Mycobacterium tuberculosis variant bovis BCG
[31] = system: Mycobacterium tuberculosis variant bovis; assay: Antimycobacterial activity against Mycobacterium bovis BCG ATCC 35734 assessed as ATP leakage by measuring extracellular ATP at 2 times MIC measured immediatey after addition of compounds by luciferase reporter gene assay; format: functional, Mycobacterium tuberculosis variant bovis BCG
[32] = system: Mycobacterium tuberculosis variant bovis; assay: Antimycobacterial activity against Mycobacterium bovis BCG ATCC 35734 assessed as ATP leakage by measuring extracellular ATP at 4 times MIC measured at 3 hrs post dose by luciferase reporter gene assay; format: functional, Mycobacterium tuberculosis variant bovis BCG

SMILES | Activity [1] [%] | Activity [2] [%] | Activity [3] [%] | Activity [4] [%] | Activity [5] [%] | Activity [6] [%] | Activity [7] [%] | Activity [8] [%] | Activity [9] [%] | Activity [10] [%] | Activity [11] [%] | Activity [12] [%] | Activity [13] [%] | MIC90 [14] [µM] | Activity [15] [%] | Activity [16] [%] | Activity [17] [%] | Activity [18] [%] | Activity [19] [%] | Activity [20] [%] | further results
CCCN(CCC)CCCCOc1cc2oc3cc(OCCCCN(CCC)CCC)c(OC)c(CC=C(C)C)c3c(=O)c2c(O)c1CC=C(C)C | 89.9 | 100 | 9.4 | 30.3 | 55.8 | 14.8 | 15.6 | 2.5 | 28 | 84.4 | 75.8 | 84 | 29.5 | 3.2 (≈ 2.31 µg/mL) | 24.7 | 75.3 | 48.5 | 37.5 | 25.4 | 79.9 | Activity [21]: 85.2%; Activity [22]: 16.8%; Activity [23]: 51.5%; Activity [24]: 70.5%; Activity [25]: 0%; Activity [26]: 69.7%; Activity [27]: 36.8%; Activity [28]: 74.9%; Activity [29]: 44.2%; Activity [30]: 24.2%; Activity [31]: 2.2%; Activity [32]: 42.1%
CCN(CC)CCCCOc1cc2oc3cc(OCCCCN(CC)CC)c(OC)c(CC=C(C)C)c3c(=O)c2c(O)c1CC=C(C)C | 57.6 | 100 | 10.5 | 6.7 | 16.4 | 6.8 | 34.7 | 2 | 22.9 | 65.3 | 33.9 | 94.5 | 5.9 | 6.4 (≈ 4.26 µg/mL) | 7.2 | 92.8 | 85.3 | 86.4 | 47.2 | 72.6 | Activity [21]: 93.2%; Activity [22]: 66%; Activity [23]: 14.7%; Activity [24]: 94.1%; Activity [25]: 0%; Activity [26]: 93.3%; Activity [27]: 8.1%; Activity [28]: 79.2%; Activity [29]: 83.6%; Activity [30]: 66.1%; Activity [31]: 3.6%; Activity [32]: 89.6%
COc1c(OCCCCN2CCOCC2)cc2oc3cc(OCCCCN4CCOCC4)c(CC=C(C)C)c(O)c3c(=O)c2c1CC=C(C)C | 83.3 | 100 | 14.3 | 37.2 | 80 | 31.5 | 4.8 | 4.7 | 8.6 | 95.2 | 92.3 | 58.4 | 49.8 | 30 (≈ 20.8 µg/mL) | 66.9 | 33.1 | 13.5 | 4.5 | 7.3 | 91.4 | Activity [21]: 68.5%; Activity [22]: 25.4%; Activity [23]: 86.5%; Activity [24]: 50.2%; Activity [25]: 0%; Activity [26]: 62.8%; Activity [27]: 72.6%; Activity [28]: 79.8%; Activity [29]: 20%; Activity [30]: 7.7%; Activity [31]: 8.1%; Activity [32]: 33.4%
